≈ marks a conversion by molar mass, not a printed value.
Key:
[1] = test system: Bacillus subtilis; assay: Antimicrobial activity against Bacillus subtilis PC1219 incubated for 72 hrs; type: functional; settings: PC1219, 72 h
[2] = test system: Trichophyton mentagrophytes; assay: Antimicrobial activity against Trichophyton mentagrophytes IFM62679 incubated for 72 hrs; type: functional, organism-based; settings: IFM62679, 72 h
[3] = test system: Staphylococcus aureus; assay: Antimicrobial activity against Staphylococcus aureus 209P incubated for 72 hrs; type: functional
[4] = test system: Candida albicans; assay: Antimicrobial activity against Candida albicans IFM62680 incubated for 72 hrs; type: functional, organism-based; settings: IFM62680, 72 h
[5] = test system: Aspergillus niger; assay: Antimicrobial activity against Aspergillus niger IFM62678 incubated for 72 hrs; type: functional, organism-based; settings: IFM62678, 72 h
[6] = test system: Cryptococcus neoformans; assay: Antimicrobial activity against Cryptococcus neoformans IFM62681 incubated for 72 hrs; type: functional, organism-based; settings: IFM62681, 72 h
[7] = test system: Escherichia coli; assay: Antimicrobial activity against Escherichia coli ATCC 25922 incubated for 72 hrs; type: functional; settings: ATCC 25922, 72 h
[8] = test system: Micrococcus luteus; assay: Antimicrobial activity against Micrococcus luteus IFM2066 incubated for 72 hrs; type: functional; settings: IFM2066, 72 h

NCCc1c(C(C2=C[C@@]3(O)CC/C=C\CCCCN4CC[C@@H]2[C@]2(C[C@@H]5/C=C\CCCCN5[C@H]23)C4)c2[nH]c3ccccc3c2CCN)[nH]c2ccccc12
MIC [1]: 8 µg/mL (≈ 11.2 µM)
IC50 [2]: 8 µg/mL (≈ 11.2 µM)
MIC [3]: 8 µg/mL (≈ 11.2 µM)
IC50 [4]: 16 µg/mL (≈ 22.4 µM)
IC50 [5]: 16 µg/mL (≈ 22.4 µM)
IC50 [6]: 2 µg/mL (≈ 2.8 µM)
MIC [7]: 32 µg/mL (≈ 44.9 µM)
MIC [8]: 8 µg/mL (≈ 11.2 µM)
